Calls of active or inactive are those of the source.
What was measured:
IGROV-1 = assay: Antiproliferative activity against human IGROV1 cells at 10'5 M; format: functional
SK-OV-3 = assay: Antiproliferative activity against human SKOV3 cells at 10'5 M; format: functional
DU-145 = assay: Antiproliferative activity against human DU145 cells at 10'5 M; format: functional
K562 = assay: Antiproliferative activity against human K562 cells at 10'5 M; format: functional
Malme-3M = assay: Antiproliferative activity against human MALME-3M cells at 10'5 M; format: functional
NCI/ADR-RES = assay: Antiproliferative activity against human NCI-ADR-RES cells at 10'5 M; format: functional
Hs-578T = assay: Antiproliferative activity against human Hs 578T cells at 10'5 M; format: functional
RPMI-8226 = assay: (§1) Antiproliferative activity against human RPMI8226 cells at 10'5 M; format: functional
SR = assay: Antiproliferative activity against human SR cells at 10'5 M; format: functional
HCC 2998 = assay: Antiproliferative activity against human HCC2998 cells at 10'5 M; format: functional
OVCAR-4 = assay: Antiproliferative activity against human OVCAR4 cells at 10'5 M; format: functional
SNB-75 = assay: Antiproliferative activity against human SNB75 cells at 10'5 M; format: functional
CCRF-CEM = assay: Antiproliferative activity against human CCRF-CEM cells at 10'5 M; format: functional
PC-3 = assay: Antiproliferative activity against human PC3 cells at 10'5 M; format: functional
HCT-116 = assay: (§2) Antiproliferative activity against human HCT116 cells at 10'5 M; format: functional
NCI-H460 = assay: Antiproliferative activity against human NCI-H460 cells at 10'5 M; format: functional
MCF7 = assay: Antiproliferative activity against human MCF7 cells at 10'5 M; format: functional
TK-10 = assay: Antiproliferative activity against human TK10 cells at 10'5 M; format: functional
MOLT-4 = assay: Antiproliferative activity against human MOLT4 cells at 10'5 M; format: functional
[1] = as §1; format: functional, RPMI-8226
[2] = as §2; format: functional, HCT-116

COc1ccc(-c2nc3ccccc3n2C(=O)/C=C/c2ccccc2)cc1
inactive: Activity (IGROV-1) | Activity (SK-OV-3) | Activity (DU-145) | Activity (K562) | Activity (Malme-3M) | Activity (NCI/ADR-RES) | Activity (Hs-578T) | Activity (RPMI-8226) | Activity (SR) | Activity (HCC 2998) | Activity (OVCAR-4) | Activity (SNB-75) | Activity (CCRF-CEM) | Activity (PC-3) | Activity (HCT-116) | Activity (NCI-H460) | Activity (MCF7) | Activity (TK-10) | Activity (MOLT-4)

O=C(/C=C/c1ccccc1)n1c(-c2ccc(O)cc2)nc2ccccc21
inactive: Activity (IGROV-1) | Activity (SK-OV-3) | Activity (DU-145) | Activity (K562) | Activity (Malme-3M) | Activity (NCI/ADR-RES) | Activity (Hs-578T) | Activity (RPMI-8226) | Activity (SR) | Activity (HCC 2998) | Activity (OVCAR-4) | Activity (SNB-75) | Activity (CCRF-CEM) | Activity (PC-3) | Activity (HCT-116) | Activity (NCI-H460) | Activity (MCF7) | Activity (TK-10) | Activity (MOLT-4)

Cc1nc2ccccc2n1C(=O)/C=C/c1ccccc1
inactive: Activity (IGROV-1) | Activity (SK-OV-3) | Activity (DU-145) | Activity (K562) | Activity (Malme-3M) | Activity (NCI/ADR-RES) | Activity (Hs-578T) | Activity (RPMI-8226) | Activity (SR) | Activity (HCC 2998) | Activity (OVCAR-4) | Activity (SNB-75) | Activity (CCRF-CEM) | Activity (PC-3) | Activity (HCT-116) | Activity (NCI-H460) | Activity (MCF7) | Activity (TK-10) | Activity (MOLT-4)

Cc1cc2ncn(C(=O)/C=C/c3ccccc3)c2cc1C
inactive: Activity (IGROV-1) | Activity (SK-OV-3) | Activity (DU-145) | Activity (K562) | Activity (Malme-3M) | Activity (NCI/ADR-RES) | Activity (Hs-578T) | Activity (RPMI-8226) | Activity (SR) | Activity (HCC 2998) | Activity (OVCAR-4) | Activity (SNB-75) | Activity (CCRF-CEM) | Activity (PC-3) | Activity (HCT-116) | Activity (NCI-H460) | Activity (MCF7) | Activity (TK-10) | Activity (MOLT-4)

O=C(/C=C/c1ccccc1)n1c(-c2ccccc2O)nc2ccccc21
inactive: Activity (IGROV-1) | Activity (SK-OV-3) | Activity (DU-145) | Activity (K562) | Activity (Malme-3M) | Activity (NCI/ADR-RES) | Activity (Hs-578T) | Activity (RPMI-8226) | Activity (SR) | Activity (HCC 2998) | Activity (OVCAR-4) | Activity (SNB-75) | Activity (CCRF-CEM) | Activity (PC-3) | Activity (HCT-116) | Activity (NCI-H460) | Activity (MCF7) | Activity (TK-10) | Activity (MOLT-4)

O=C(/C=C/c1ccccc1)n1c(-c2ccccc2)nc2ccccc21
inactive: Activity (IGROV-1) | Activity (SK-OV-3) | Activity (DU-145) | Activity (K562) | Activity (Malme-3M) | Activity (NCI/ADR-RES) | Activity (Hs-578T) | Activity (RPMI-8226) | Activity (SR) | Activity (HCC 2998) | Activity (OVCAR-4) | Activity (SNB-75) | Activity (CCRF-CEM) | Activity (PC-3) | Activity (HCT-116) | Activity (NCI-H460) | Activity (MCF7) | Activity (TK-10) | Activity (MOLT-4)

Cc1cc2nc[nH]c2cc1C [DIMEDAZOL]
69.59%: growth inhibition (GI) (MCF7)
64.66%: growth inhibition (GI) (SR) | growth inhibition (GI) (CCRF-CEM)
63.61%: growth inhibition (GI) [1]

Cc1ccc2nc[nH]c2c1
60.81%: growth inhibition (GI) (CCRF-CEM)
84.7%: growth inhibition (GI) (SR)
73.43%: growth inhibition (GI) (MCF7)
88.17%: growth inhibition (GI) [1]
64.84%: growth inhibition (GI) [2]

Cc1ccc2ncn(C(=O)/C=C/c3ccccc3)c2c1
inactive: Activity (IGROV-1) | Activity (SK-OV-3) | Activity (DU-145) | Activity (K562) | Activity (Malme-3M) | Activity (NCI/ADR-RES) | Activity (Hs-578T) | Activity (RPMI-8226) | Activity (SR) | Activity (HCC 2998) | Activity (OVCAR-4) | Activity (SNB-75) | Activity (CCRF-CEM) | Activity (PC-3) | Activity (HCT-116) | Activity (NCI-H460) | Activity (MCF7) | Activity (TK-10) | Activity (MOLT-4)

Reference: ChEMBL document CHEMBL3769371, “1-[(2E)-3-Phenylprop-2-enoyl]-1H-benzimidazoles as anticancer agents: synthesis, crystal structure analysis and binding studies of the most potent anticancer molecule with serum albumin” (Medchemcomm, 2015)
